# Laboratory results from PubChem BioAssay AID1794831.
# Target: Solute carrier family 2, facilitated glucose transporter member 9 (Homo sapiens) (UniProt Q9NRM0)
# Test: SLC2A9 substrate-evoked membrane potential change, dose response, cell-based, membrane potential dye, HEK-293, SLC2A9 overexpression (AID 1794831)
# Conditions: HEK-293 SLC2A9 OE, FLIPR membrane potential dye
# Solute carrier family 2, facilitated glucose transporter member 9 (Homo sapiens), sequence (Q9NRM0 whole entry, looked up): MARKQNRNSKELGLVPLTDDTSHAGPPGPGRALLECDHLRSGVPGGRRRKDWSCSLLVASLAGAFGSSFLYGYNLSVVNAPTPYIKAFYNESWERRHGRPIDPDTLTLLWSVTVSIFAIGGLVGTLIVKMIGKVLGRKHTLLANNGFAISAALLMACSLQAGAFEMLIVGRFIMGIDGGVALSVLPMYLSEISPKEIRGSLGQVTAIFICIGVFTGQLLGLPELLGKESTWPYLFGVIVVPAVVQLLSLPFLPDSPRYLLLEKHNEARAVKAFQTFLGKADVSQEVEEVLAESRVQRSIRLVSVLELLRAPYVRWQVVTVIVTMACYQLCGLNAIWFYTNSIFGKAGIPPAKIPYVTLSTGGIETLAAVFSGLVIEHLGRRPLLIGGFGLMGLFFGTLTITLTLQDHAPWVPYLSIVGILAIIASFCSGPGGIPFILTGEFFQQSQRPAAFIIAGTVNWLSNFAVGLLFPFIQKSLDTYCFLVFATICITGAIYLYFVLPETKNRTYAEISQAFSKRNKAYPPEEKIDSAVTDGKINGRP
row,Compound,EC50 [µM]
1,O=c1[nH]c(=O)c2[nH]c(=O)[nH]c2[nH]1,300
2,O=C(O)c1cc(=O)[nH]c(=O)[nH]1,1000
